Measured values: US20140135310A1, “SULPHONAMIDE DERIVATIVES OF ALICYCLIC AMINES FOR THE TREATMENT OF CENTRAL NERVOUS SYSTEM DISEASES” (Adamed Sp. z o.o., priority 2011, published 2014)

What was measured:
[1] = target: T1, 5-HT1A receptor (rat hippocampus) (Rattus norvegicus, UniProt P19327); experiment: Radioligand binding assay, serotoninergic 5-HT1A receptors; settings: binding assay result in %, Table 5a;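 also: test compound at 1 µM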
T1 construct: hippocampus; from tissue; host or cells: rat hippocampus
T1 sequence (P19327 1-422): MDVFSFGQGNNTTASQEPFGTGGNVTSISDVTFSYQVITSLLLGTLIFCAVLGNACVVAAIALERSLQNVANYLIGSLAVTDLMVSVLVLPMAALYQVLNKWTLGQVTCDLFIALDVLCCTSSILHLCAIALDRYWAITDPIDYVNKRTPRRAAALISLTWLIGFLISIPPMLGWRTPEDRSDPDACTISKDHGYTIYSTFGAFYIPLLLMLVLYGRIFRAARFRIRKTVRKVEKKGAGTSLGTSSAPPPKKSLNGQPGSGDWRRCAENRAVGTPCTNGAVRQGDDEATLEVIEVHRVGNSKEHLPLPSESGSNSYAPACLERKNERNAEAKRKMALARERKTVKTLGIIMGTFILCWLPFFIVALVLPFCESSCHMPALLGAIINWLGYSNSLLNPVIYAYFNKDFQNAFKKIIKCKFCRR

[2] = target: T2, 5-HT7 receptor (Homo sapiens, UniProt P34969); experiment: Radioligand binding assay, serotoninergic 5-HT7 receptors; settings: binding assay result in %, Table 5a;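 also: test compound at 1 µM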
T2 construct: purchased PerkinElmer
T2 sequence (P34969 whole entry): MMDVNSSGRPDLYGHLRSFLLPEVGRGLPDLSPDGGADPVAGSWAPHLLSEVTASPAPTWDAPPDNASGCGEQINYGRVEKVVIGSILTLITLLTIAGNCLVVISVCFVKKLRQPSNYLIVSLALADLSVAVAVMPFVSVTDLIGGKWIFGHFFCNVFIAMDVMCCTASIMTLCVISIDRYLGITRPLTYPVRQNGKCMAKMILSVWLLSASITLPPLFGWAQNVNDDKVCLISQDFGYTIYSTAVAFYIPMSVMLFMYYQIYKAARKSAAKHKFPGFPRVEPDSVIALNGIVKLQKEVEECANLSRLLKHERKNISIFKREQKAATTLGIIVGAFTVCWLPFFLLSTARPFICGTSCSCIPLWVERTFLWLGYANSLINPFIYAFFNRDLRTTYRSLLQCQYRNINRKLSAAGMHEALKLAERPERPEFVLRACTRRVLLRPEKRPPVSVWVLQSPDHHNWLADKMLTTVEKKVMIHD
In short: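 Ki values used the Cheng–Prusoff equation, with KD from Scatchard analysis, applied to IC50 from Hill fits of human 5-HT7 radioligand competition curves. Bound radioligand was counted by scintillation, and excess unlabelled ligand set the non-specific binding.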

[3] = target: dopaminergic receptors D2 (Homo sapiens, UniProt P14416); experiment: Radioligand binding assay, dopaminergic D2 receptors; settings: binding assay, test compound 1×10^−6 M
Chain of dopaminergic receptors D2 (P14416 whole entry): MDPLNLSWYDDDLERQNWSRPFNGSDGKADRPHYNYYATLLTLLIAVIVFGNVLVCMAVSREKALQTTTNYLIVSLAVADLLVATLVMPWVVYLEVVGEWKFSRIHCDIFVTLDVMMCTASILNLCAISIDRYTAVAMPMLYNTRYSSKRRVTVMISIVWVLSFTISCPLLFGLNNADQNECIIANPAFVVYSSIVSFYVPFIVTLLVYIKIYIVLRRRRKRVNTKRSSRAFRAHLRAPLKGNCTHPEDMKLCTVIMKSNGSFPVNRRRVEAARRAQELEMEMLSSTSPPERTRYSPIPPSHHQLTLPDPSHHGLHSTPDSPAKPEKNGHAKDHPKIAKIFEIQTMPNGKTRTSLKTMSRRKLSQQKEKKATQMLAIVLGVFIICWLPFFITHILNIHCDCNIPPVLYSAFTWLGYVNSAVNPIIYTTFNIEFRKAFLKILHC
In short: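 Displacement of radioligand from human dopamine D2, D3 or D4.4 receptors, counted by scintillation; specific binding is total minus binding under excess unlabelled ligand. IC50 values come from Hill curve fits of percent inhibition, then converted to Ki by Cheng-Prusoff using Scatchard-derived KD.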

[4] = system: α1 adrenergic receptors (rat cerebral cortex); experiment: Radioligand binding assay, adrenergic α1 receptors; settings: test compound 1×10^−6 M
In short: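 Values derive from radioligand displacement, with non-specific binding defined by excess cold ligand and detection by scintillation. Hill-fit IC50s were converted to Ki via Cheng-Prusoff using Scatchard-derived Kd; percent inhibition of control specific binding also reported.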

[5] = target: T3, 5-HT2A receptor (Homo sapiens, UniProt P28223); experiment: Radioligand binding assay, serotoninergic 5-HT2A receptors; settings: binding assay result in %, Table 5a
T3 construct: purchased PerkinElmer
T3 sequence (P28223 whole entry): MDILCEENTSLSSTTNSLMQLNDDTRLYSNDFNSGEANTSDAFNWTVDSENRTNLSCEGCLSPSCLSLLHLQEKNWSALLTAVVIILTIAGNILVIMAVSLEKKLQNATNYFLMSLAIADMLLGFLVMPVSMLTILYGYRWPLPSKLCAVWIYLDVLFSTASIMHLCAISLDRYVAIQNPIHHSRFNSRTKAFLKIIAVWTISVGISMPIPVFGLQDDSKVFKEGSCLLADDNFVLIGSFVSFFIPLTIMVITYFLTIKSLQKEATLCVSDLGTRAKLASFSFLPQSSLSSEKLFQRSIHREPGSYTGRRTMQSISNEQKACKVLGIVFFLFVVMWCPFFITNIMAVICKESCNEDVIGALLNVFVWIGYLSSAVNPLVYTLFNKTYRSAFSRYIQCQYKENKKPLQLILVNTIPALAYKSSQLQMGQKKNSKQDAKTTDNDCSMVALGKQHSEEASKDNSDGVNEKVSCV
In short: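 Competition curves from scintillation-counted specific binding (total minus binding with excess unlabelled ligand) were Hill-fitted to give IC50, converted to Ki via Cheng-Prusoff using Scatchard-derived Kd.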

[6] = target: dopaminergic receptors D3 (Homo sapiens, UniProt P35462); experiment: Radioligand binding assay, dopaminergic D3 receptors; settings: test compound 1×10^−6 M
Chain of dopaminergic receptors D3 (P35462 whole entry): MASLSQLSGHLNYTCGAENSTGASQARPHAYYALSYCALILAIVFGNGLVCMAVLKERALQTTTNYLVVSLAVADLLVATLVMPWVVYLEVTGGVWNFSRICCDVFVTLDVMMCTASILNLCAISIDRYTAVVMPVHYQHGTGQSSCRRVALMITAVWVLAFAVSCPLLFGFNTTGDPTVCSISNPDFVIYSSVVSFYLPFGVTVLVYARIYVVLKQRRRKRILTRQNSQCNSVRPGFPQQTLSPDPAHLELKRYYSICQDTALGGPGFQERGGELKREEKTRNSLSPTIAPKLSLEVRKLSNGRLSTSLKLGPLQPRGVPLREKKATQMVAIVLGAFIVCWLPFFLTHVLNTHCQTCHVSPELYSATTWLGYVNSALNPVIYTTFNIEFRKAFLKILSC
In short: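 Scintillation read-out. Specific = total − nonspecific (excess cold ligand). Data as % of control specific binding / % inhibition; IC50 by Hill fit; Ki = IC50/(1+L/KD), KD from Scatchard plot.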

[7] = target: T4, serotonin transporter (SERT) (Homo sapiens, UniProt P31645); experiment: Radioligand binding assay, serotonin transporter (SERT); settings: binding assay, test compound 1×10^−6 M
T4 construct: expressed in transfected cells; host or cells: CHO cells
T4 sequence (P31645 whole entry): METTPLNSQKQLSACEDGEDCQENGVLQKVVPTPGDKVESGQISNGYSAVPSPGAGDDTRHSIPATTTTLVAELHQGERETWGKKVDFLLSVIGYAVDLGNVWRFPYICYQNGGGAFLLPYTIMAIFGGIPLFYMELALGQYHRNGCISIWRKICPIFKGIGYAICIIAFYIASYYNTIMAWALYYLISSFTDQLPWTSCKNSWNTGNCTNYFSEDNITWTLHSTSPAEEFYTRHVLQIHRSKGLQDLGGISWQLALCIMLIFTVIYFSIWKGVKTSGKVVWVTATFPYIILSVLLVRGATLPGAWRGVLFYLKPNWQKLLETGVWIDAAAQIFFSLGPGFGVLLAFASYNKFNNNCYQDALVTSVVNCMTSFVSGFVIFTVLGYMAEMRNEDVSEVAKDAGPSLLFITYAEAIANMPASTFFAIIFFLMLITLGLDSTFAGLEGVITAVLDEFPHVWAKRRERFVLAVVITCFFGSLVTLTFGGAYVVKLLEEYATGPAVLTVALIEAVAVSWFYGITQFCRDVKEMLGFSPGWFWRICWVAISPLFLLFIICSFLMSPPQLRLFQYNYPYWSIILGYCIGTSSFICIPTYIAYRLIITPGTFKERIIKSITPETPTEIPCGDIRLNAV
In short: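 Values are derived from competition curves fitted by the Hill equation to give IC50, then converted to Ki by Cheng-Prusoff with radioligand Kd from Scatchard analysis. Specific binding equals total minus non-specific (excess cold ligand), counted by scintillation, and is also expressed as percent inhibition of control.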

[8] = target: T5, 5-HT6 receptor (Homo sapiens, UniProt P50406); experiment: Radioligand binding assay, serotoninergic 5-HT6 receptors; settings: binding assay result in %, Table 5a;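 also: test compound at 1 µM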
T5 construct: purchased PerkinElmer
T5 sequence (P50406 whole entry): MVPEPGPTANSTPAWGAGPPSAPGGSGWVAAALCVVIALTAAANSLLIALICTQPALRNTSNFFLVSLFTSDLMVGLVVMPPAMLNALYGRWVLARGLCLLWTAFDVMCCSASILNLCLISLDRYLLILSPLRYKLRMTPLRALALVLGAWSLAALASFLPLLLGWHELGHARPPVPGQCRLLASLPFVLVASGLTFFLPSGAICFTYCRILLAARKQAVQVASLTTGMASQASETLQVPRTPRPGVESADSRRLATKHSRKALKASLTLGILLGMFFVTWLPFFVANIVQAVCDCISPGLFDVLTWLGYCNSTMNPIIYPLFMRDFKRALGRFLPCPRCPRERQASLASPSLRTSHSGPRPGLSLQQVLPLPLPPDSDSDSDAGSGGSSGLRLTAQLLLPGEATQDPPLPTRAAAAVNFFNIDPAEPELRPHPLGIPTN
In short: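 Values are Ki from Cheng–Prusoff, taking IC50 from Hill nonlinear regression of competition curves and KD from a Scatchard plot. Specific binding was total minus binding with excess unlabelled ligand. Radioligand displacement was detected by scintillation counting, and data were also reported as percent of control specific binding.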

5-HT1A [%] [1] [%]	5-HT7 [%] [2] [%]	D2 [%] [3] [%]	5-HT2A [%] [5] [%]	D3 [%] [6] [%]	SERT [%] [7] [%]	5-HT6 [%] [8] [%]	SMILES	inhibition at 1 µM [1] [%]	inhibition at 1 µM [2] [%]	inhibition at 1 µM [3] [%]	α1 [%] [4] [%]	inhibition at 1 µM [5] [%]	inhibition at 1 µM [6] [%]	inhibition at 1 µM [7] [%]	inhibition at 1 µM [8] [%]
							Cn1ccc2cc(S(=O)(=O)NCC3CN(CCOc4cccc5c4OCCO5)C3)ccc21 [Compound 187, N-[[1-[2-(2,3-Dihydro-1,4-benzodioxin-5-yloxy)ethyl]azetidin-3-yl]methyl]-1-methyl-indole-5-sulphonamide]	78	98	56	88	93	48	69	44
							Cn1ccc2c(S(=O)(=O)NCC3CN(CCOc4cccc5c4OCCO5)C3)cccc21 [Compound 188, N-[[1-[2-(2,3-Dihydro-1,4-benzodioxin-5-yloxy)ethyl]azetidin-3-yl]methyl]-1-methyl-indole-4-sulphonamide]	101	91	52	91	89	51	44	14
							O=S(=O)(NCC1CCN(CCCc2noc3cc(F)ccc23)C1)c1ccc(Cl)c(Cl)c1 (centres unmarked) [Compound 253, 3,4-Dichloro-N-[[1-[3-(6-fluoro-1,2-benzoxazol-3-yl)propyl]pyrrolidin-3-yl]methyl]benzenesulphonamide]	34	97	87	94	99	55	12	101
							O=S(=O)(NC1CCN(CCOc2cccc3[nH]ccc23)C1)c1cccc2ccccc12 (centres unmarked) [Compound 53, N-[1-[2-(1H-indol-4-yloxy)ethyl]pyrrolidin-3-yl]naphthalene-1-sulphonamide]	90	102	74	88	85	99	56	54
							O=S(=O)(NC1CCN(CCCc2noc3cc(F)ccc23)C1)c1ccc2c(c1)OCC2 (centres unmarked) [Compound 24, N-[1-[3-(6-Fluoro-1,2-benzoxazol-3-yl)propyl]pyrrolidin-3-yl]-2,3-dihydrobenzofuran-6-sulphonamide]	19	82	94	101	95	52	-10	78
							Cn1ccc2c(S(=O)(=O)NCC3CN(CCOc4cccc5ccccc45)C3)cccc21 [Compound 170, 1-Methyl-N-[[1-[2-(1-naphthyloxy)ethyl]azetidin-3-yl]methyl]indole-4-sulphonamide]	90	104	79	63	72	98	93	93
82	92	5	49	−7	18	−16	O=S(=O)(NC1CN(CCOc2cccc3c2OCCO3)C1)c1ccc(F)cc1 [Compound 90, N-[1-[2-(2,3-Dihydro-1,4-benzodioxan-8-yloxy)ethyl]azetidin-3-yl]-4-fluoro-benzenesulphonamide]				−25				
							O=S(=O)(NC1CCN(CCCc2noc3cc(F)ccc23)C1)c1ccc2c(c1)OCO2 (centres unmarked) [Compound 194, N-[1-[3-(6-Fluoro-1,2-benzoxazol-3-yl)propyl]pyrrolidin-3-yl]-1,3-benzo-dioxole-5-sulphonamide]	63	82	19	96	29	48	1	53
94	94	5	0	1	−4	9	O=S(=O)(NC1CN(CCOc2cccc3c2OCCO3)C1)c1ccc2ccccc2c1 [Compound 95, N-[1-[2-(2,3-Dihydro-1,4-benzodioxan-8-yloxy)ethyl]azetidin-3-yl]naphthalene-2-sulphonamide]				−21				
84	105	29	89	40	−1	43	Cc1cccc(S(=O)(=O)NC2CCN(CCOc3cccc4c3OCCO4)C2)c1 (centres unmarked) [Compound 97, N-[1-[2-(2,3-Dihydro-1,4-benzodioxan-8-yloxy)ethyl]pyrrolidin-3-yl]-3-methylbenzenesulphonamide]				64				
							O=S(=O)(NCC1CN(CCOc2cccc3c2OCCO3)C1)c1csc2ccccc12 [Compound 190, N-[[1-[2-(2,3-Dihydro-1,4-benzodioxin-5-yloxy)ethyl]azetidin-3-yl]methyl]-benzothiophene-3-sulphonamide]	100	97	51	86	68	62	31	34
							N#Cc1ccc(S(=O)(=O)NC2CCN(CCCc3noc4cc(F)ccc34)C2)cc1 (centres unmarked) [Compound 210, 4-Cyano-N-[1-[3-(6-fluoro-1,2-benzoxazol-3-yl)propyl]pyrrolidin-3-yl]benzenesulphonamide]	8	80	64	94	80	27	35	68
							O=S(=O)(NC1CCN(CCCc2noc3cc(F)ccc23)CC1)c1ccc2cc(Cl)ccc2c1 [Compound 325, 6-Chloro-N-[1-[3-(6-fluoro-1,2-benzoxazol-3-yl)propyl]-4-piperidyl]naphthalene-2-sulphonamide]	80	89	91	76	92	59	21	72
							O=S(=O)(NC1CCN(CCCc2noc3cc(F)ccc23)C1)c1cccc(Cl)c1 (centres unmarked) [Compound 9, 3-Chloro-N-[1-[3-(6-fluoro-1,2-benzoxazol-3-yl)propyl]pyrrolidin-3-yl]benzenesulphonamide]	12	90	88	83	95	30	2	75
							O=S(=O)(NCC1CCN(CCOc2cccc3ccccc23)C1)c1cc2ccccc2s1 (centres unmarked) [Compound 268, N-[[1-[2-(1-Naphthyloxy)ethyl]pyrrolidin-3-yl]methyl]benzothiophene-2-sulphonamide]	77	88	54	9	82	93	85	84

SMILES	5-HT1A [%] [1] [%]	5-HT7 [%] [2] [%]	D2 [%] [3] [%]	5-HT2A [%] [5] [%]	D3 [%] [6] [%]	SERT [%] [7] [%]	5-HT6 [%] [8] [%]	inhibition at 1 µM [1] [%]	inhibition at 1 µM [2] [%]	inhibition at 1 µM [3] [%]	α1 [%] [4] [%]	inhibition at 1 µM [5] [%]	inhibition at 1 µM [6] [%]	inhibition at 1 µM [7] [%]	inhibition at 1 µM [8] [%]
Cc1cccc(S(=O)(=O)NC2CCN(CCOc3cccc4[nH]ccc34)CC2)c1 [Compound 56, N-[1-[2-(1H-Indol-4-yloxy)ethyl]-4-piperidine]-3-methylbenzene-sulphonamide]	75	106	34	84	98	15	36				74				
